Source: US20120100130A1, “Novel Receptor Hetero-Dimers/-Oligomers” (DIMERIX BIOSCIENCE PTY LTD., priority 2009, published 2012)

Experiments:
AT1R [1] = target: T1, AT1R (Homo sapiens, UniProt P30556); test: eBRET control, cells expressing AT1R/Rluc8 and barr2/Venus with pcDNA3; assay type: cell-based; details: 10^−7M MCP1; HEK293FT cells expressing AT1R/Rluc8 and barr2/Venus with pcDNA3
T1 construct: expressed in transfected cells; host or cells: HEK293FT
T1 sequence (P30556 1-359): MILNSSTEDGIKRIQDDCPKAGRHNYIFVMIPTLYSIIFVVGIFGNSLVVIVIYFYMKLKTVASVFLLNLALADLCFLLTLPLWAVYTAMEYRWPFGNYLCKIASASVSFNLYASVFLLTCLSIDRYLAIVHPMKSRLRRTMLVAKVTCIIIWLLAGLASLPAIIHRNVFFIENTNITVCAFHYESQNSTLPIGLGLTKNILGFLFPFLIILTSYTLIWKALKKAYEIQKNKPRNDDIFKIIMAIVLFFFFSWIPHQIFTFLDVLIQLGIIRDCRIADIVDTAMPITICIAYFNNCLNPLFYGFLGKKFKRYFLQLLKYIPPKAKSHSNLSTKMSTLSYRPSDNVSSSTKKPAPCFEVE
Description: (§1) HEK293FT cells were seeded in 6-well plates at a density of approximately 630,000 cells/well and maintained at 37° C., 5% CO2 in Complete Media (DMEM containing 0.3 mg/ml glutamine, 100 IU/ml penicillin and 100 μg/ml streptomycin (Gibco)) supplemented with 10% fetal calf serum (FCS; Gibco). Transient transfections were carried out 24 h after seeding using GeneJuice (Novagen) according to manufacturer instructions. 24 h post-transfection, cells were washed with PBS, detached using 0.05% trypsin/0.53 mM EDTA, resuspended in HEPES-buffered phenol red free Complete Media containing 5% FCS and added to a poly-L-lysine-coated white 96-well microplate (Nunc). 48 h post-transfection, eBRET assays were carried out following pre-incubation of cells with EnduRen™ (Promega) at a final concentration of 30 μM, at 37° C., 5% CO2 for 2 h. BRET measurements were taken at 37° C. using the Victor Light plate reader with Wallac 1420 software (Perkin-Elmer). Filtered light emissions were sequentially measured for 2 s in each of the ‘donor wavelength window’ (400-475 nm) and ‘acceptor wavelength window’ (520-540 nm).
The BRET signal observed between interacting proteins is normalized by subtracting the background BRET ratio. […]
In parallel, eBRET signals were measured from cells transiently expressing AT1R/Rluc8 and barr2/Venus with pcDNA3 following treatment with 10^−7M monocyte chemotactic protein-1 (MCP1).

AT2R = target: T2, AT2R (Homo sapiens, UniProt P50052); test: eBRET control, cells expressing AT2R/Rluc8 and barr2/Venus with pcDNA3; assay type: cell-based; details: 10^−7M MCP1; HEK293FT cells expressing AT2R/Rluc8 and barr2/Venus with pcDNA3
T2 construct: expressed in transfected cells; host or cells: HEK293FT
T2 sequence (P50052 1-363): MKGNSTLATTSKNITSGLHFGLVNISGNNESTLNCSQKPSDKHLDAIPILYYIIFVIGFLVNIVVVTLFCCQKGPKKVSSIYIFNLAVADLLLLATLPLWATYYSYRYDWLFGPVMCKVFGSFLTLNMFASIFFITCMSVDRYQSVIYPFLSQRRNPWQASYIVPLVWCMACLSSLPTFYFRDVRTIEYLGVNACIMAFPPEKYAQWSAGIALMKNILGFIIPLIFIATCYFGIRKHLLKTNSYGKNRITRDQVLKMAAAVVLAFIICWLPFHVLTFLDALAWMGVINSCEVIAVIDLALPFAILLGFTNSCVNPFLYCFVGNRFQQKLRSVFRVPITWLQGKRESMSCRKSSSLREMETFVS
Description: as §1
The BRET signal observed between interacting proteins is normalized by subtracting the background BRET ratio. […] In the following examples, the second calculation will be used and the signal is described as the ‘ligand-induced BRET ratio’.

[2] = test system: renal cells and monocytes; details: cited from earlier work
CCR2b = target: T3, CCR2b (Rattus norvegicus, UniProt O55193); details: AngII and high salt diet, cited from earlier work
T3 construct: host or cells: whole animals (in vivo)
T3 sequence (O55193 1-373): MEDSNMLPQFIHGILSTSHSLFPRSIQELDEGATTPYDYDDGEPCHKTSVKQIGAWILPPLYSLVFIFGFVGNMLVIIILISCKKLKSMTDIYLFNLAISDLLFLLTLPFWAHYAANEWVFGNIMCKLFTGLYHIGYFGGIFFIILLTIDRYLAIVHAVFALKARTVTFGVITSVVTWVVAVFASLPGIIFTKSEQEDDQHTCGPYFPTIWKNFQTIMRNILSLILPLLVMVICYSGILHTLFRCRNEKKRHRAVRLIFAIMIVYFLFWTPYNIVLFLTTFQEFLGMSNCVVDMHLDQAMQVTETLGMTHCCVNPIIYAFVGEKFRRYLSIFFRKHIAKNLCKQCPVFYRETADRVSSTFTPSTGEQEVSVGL

AngII treated monocytes = details: cited from earlier work
leukocyte infiltration = details: intraperitoneal AngII administration; cited from earlier work
[3] = test system: glomerular endothelial cells; details: AngII treatment, rat glomerular endothelial cells; cited from earlier work
renal tissue = details: rats, 3 days of AngII treatment; cited from earlier work
AT1R [4] = details: apolipoprotein E-deficient mice, cited from earlier work

**Q.** With monocyte chemotactic protein-1 [MCP1] as the compound, how does the “ligand-induced BRET ratio” value (AT1R [1]) read?
**A.** did not result in an increase in ligand-induced BRET ratio

**Q.** And the “ligand-induced BRET ratio” value (AT2R)?
**A.** did not result in an increase in ligand-induced BRET ratio

**Q.** Which results are given for “angiotensin III (RVYIHPF; Angiotensin-3; UniProt P01019 26-32, looked up) [AngIII]”?
**A.** MCP-1 mRNA and protein expression ([2]; AngIII treatment of renal cells and monocytes): increase; transcription factor NF-κB ([2]; AngIII treatment): activated

**Q.** What does the source list for `O=C1Nc2ccccc2C2(CCN(CCc3ccc(C(F)(F)F)cc3)CC2)O1` [RS102895]?
**A.** BP (CCR2b; with versus without CCR2b antagonist): comparable; renal protection in hypertension (CCR2b): protects the kidney in hypertension by reducing the inflammatory response

**Q.** Which “AngII-induced upregulation of MIP-1” value (AngII treated monocytes) does the source give for `C[C@H](N[C@@H](CCc1ccccc1)C(=O)O)C(=O)N1[C@H](C(=O)O)C[C@@H]2CCC[C@@H]21` [Ramiprilat] here?
**A.** suppressed

**Q.** Which “AngII-mediated upregulation of MIP-1 and interleukin-8 chemokines” value (AngII treated monocytes) does the source give for `CCCCc1nc(Cl)c(CO)n1Cc1ccc(-c2ccccc2-c2nn[nH]n2)cc1` [Losartan] here?
**A.** inhibited

**Q.** What about the Leukocyte infiltration (leukocyte infiltration) of the same compound?
**A.** inhibited

**Q.** For “angiotensin II (DRVYIHPF; Angiotensin-2; UniProt P01019 25-32, looked up) [AngII]”, which “mRNA and protein expression of the chemokine RANTES” value [3] is on record?
**A.** increase

**Q.** What about the “renal expression of TNFα and MCP-1” value (renal tissue) of the same compound?
**A.** increased

**Q.** What about the “CC and CXC chemokine levels” value (leukocyte infiltration) of the same compound?
**A.** increase

**Q.** With `CCCCC1=NC2(CCCC2)C(=O)N1Cc1ccc(-c2ccccc2-c2nnn[nH]2)cc1` [irbesartan] as the compound, how does the lesion size (AT1R [4]; after 12 weeks) read?
**A.** reduced

**Q.** What about the “levels of MCP-1 and MIP-1α mRNA expression” value (AT1R [4]) of the same compound?
**A.** significantly lower
